Laboratory results: patent US20060004104A1, “Methods and compositions for treatment of cancer pain” (priority 2002, published 2006)

Tests used:
Type in all cases: in vivo
[1] = test system: intra-tibial MRMT-1 rat mammary gland carcinoma cells (bone cancer pain); experiment: Rat model of bone cancer pain: mechanical allodynia (static and dynamic); conditions: day 20; for static allodynia (punctuate stimulus), ipsilateral paw: 90 minutes after the last administration
Description: Adult female rats are given intra-tibial injections of MRMT-1 rat mammary gland carcinoma cells (3 μl, 10^7 cells/ml). These animals gradually develop mechanical hyperalgesia, mechanical allodynia (skin sensitivity to non-noxious stimuli) and hind limb sparing, beginning on day 12-14 following cell injection.

[2] = test system: intra-tibial MRMT-1 rat mammary gland carcinoma cells (bone cancer pain); experiment: Rat model of bone cancer pain: weight-bearing difference (hind limb sparing); conditions: for weight-bearing difference between contralateral and ipsilateral paw: measured 1 hour after drug administration
Description: Adult female rats are given intra-tibial injections of MRMT-1 rat mammary gland carcinoma cells (3 μl, 10^7 cells/ml). These animals gradually develop mechanical hyperalgesia, mechanical allodynia (skin sensitivity to non-noxious stimuli) and hind limb sparing, beginning on day 12-14 following cell injection. […] Intra-tibial inoculation of MRMT-1 cells induces a time-dependent hypersensitivity in the ipsilateral limb, measured as a shift in body weight to the contralateral limb. The increase in weight-bearing difference between contralateral and ipsilateral paw (weight shift from the affected to the unaffected limb) is evident by day 14 post-inoculation and continues to increase until day 20. […] This effect is significant for COX189 on days 10, 14, 17 and 20 as well as for valdecoxib (30 mg/kg, p.o.) on day 20. […] Lower doses are not studied. […] The treatments induces a progressive and long-lasting reduction in hypersensitivity, since the weight-bearing difference is also attenuated when measured 1 h before the first daily treatment. This preventative effect reaches significant levels for all three treatments on days 14 and 17. There is no significant difference between the effects measured before and after COX189 administration on each day for any individual treatment.

[3] = test system: intra-tibial MRMT-1 rat mammary gland carcinoma cells (bone cancer); experiment: Rat model of bone cancer pain: radiologically observed structural changes and bone mineral density
Description: Adult female rats are given intra-tibial injections of MRMT-1 rat mammary gland carcinoma cells (3 μl, 10^7 cells/ml).

[4] = 30 mg/kg repeated administration, day 20

SMILES	static allodynia (punctuate stimulus), ipsilateral paw ([1]; 10 mg/kg p.o. repeated)	dynamic allodynia (light stroking of the skin), ipsilateral paw ([1]; 30 mg/kg p.o. repeated)	static allodynia (punctuate stimulus), ipsilateral paw ([1]; 30 mg/kg p.o. repeated)	weight-bearing difference between contralateral and ipsilateral paw ([2]; 10 mg/kg p.o. repeated from day 10 post-inoculation, days 14, 17 and 20)	weight-bearing difference between contralateral and ipsilateral paw ([2]; 30 mg/kg p.o. repeated from day 10 post-inoculation, days 14, 17 and 20)	dose-dependence of the effect on weight-bearing difference ([2]; 10 versus 30 mg/kg p.o.)	radiologically observed structural changes ([3]; 10 mg/kg repeated administration, day 20)	loss of bone mineral density compared to vehicle treated animals [3, 4]	radiologically observed structural changes [3, 4]	radiologically observed structural changes in an animal model of bone cancer pain ([3]; summary statement, no dose given)	weight-bearing difference between contralateral and ipsilateral paw ([2]; 30 mg/kg p.o. repeated, day 20)
Cc1ccc(Nc2c(F)cccc2Cl)c(CC(=O)O)c1 [COX189, 5-methyl-2-(2′-chloro-6′-fluoroanilino)-phenylacetic acid]	significantly reverses	reaches statistical significance	significantly reverses	significantly attenuates	significantly attenuates	not dose-dependent	significantly inhibits	significantly inhibit	significantly inhibits	inhibit	
Cc1onc(-c2ccccc2)c1-c1ccc(S(N)(=O)=O)cc1 [valdecoxib, reference compound]			significantly reverses								significant
